These results are taken from US20240409528A1, “BINDERS OF CEREBLON AND METHODS OF USE THEREOF” (DANA-FARBER CANCER INSTITUTE, INC., priority 2021, published 2024).

Data set [1] in a line: Kinetic solubility. Type of data set: physicochemical. To be noted: kinetic from dmso stock.
A short description of data set [2]: Caco-2 permeability. The class given is in vitro ADME. The note with it: human. (In general: Caco-2 monolayers are a common model of the intestinal barrier.)
Data set [3] in a line: Human liver microsome (HLM) stability. To be noted: human liver microsomes. The class given is in vitro ADME. The method, then:
(§1) The stability of compounds was assessed in human plasma, human liver microsomes (HLM) and human hepatocytes (Hhep) using procedures previously published (Kong el al., ACS Med Chem Lett 12:1861-1865 (2021)). […] HLM stability T1/2 compound 1: >145 min. Hhep stability Tin compound 1: >217 min.
(Microsomes from liver hold many membrane-bound enzymes, among them those of drug oxidation.)

A short description of data set [4]: Human hepatocyte (Hhep) stability. The class given is in vitro ADME. The note with it: human hepatocytes. Here is the method: as §1
Data set [5] addresses T1, hsCRBN-DDB1 complex (Homo sapiens, UniProt Q96SW2). In words: Intact LC-MS of CRBN-DDB1 complex (covalent labeling). Type of data set: binding. To be noted: for adduct formation with CRBN (intact MS): equimolar compound, room temperature. The method, then: After injecting 5 μg, proteins were desalted for four min on column with 100% A and then eluted with an HPLC gradient (0-100% B in 1 min; A=0.2 M acetic acid in water; B=0.2 M acetic acid in acetonitrile). The mass spectrometer was programmed to acquire full scan mass spectra (m/z 300-2000) in profile mode (spray voltage=4.5 kV). Mass spectra were deconvoluted using MagTran software version 1.03b2.

In data set [6] the test system is IKZF1. Put plainly: Inhibition of IKZF1 degradation by lenalidomide, Western blot in MOLT4 cells. To be noted: 1 μM compound 2 hr pre-treatment, then 1 μM lenalidomide 5 hours. In general terms: A western blot detects proteins with antibodies after separation by electrophoresis.
Data set [7] has as its target T2, PFKFB4 (Homo sapiens, UniProt Q16877).
T2 construct: endogenous in cells; host or cells: MOLT4
In words: Mass spectrometry proteomics, relative protein abundance in MOLT4 cells (PFKFB4). Type of data set: cell-based. The note with it: 1 μM compound, 5 hours.

Data set [8] concerns the target T3, RNF166 (Homo sapiens, UniProt Q96A37).
T3 construct: endogenous in cells; host or cells: MOLT4
T3 sequence (Q96A37 1-237): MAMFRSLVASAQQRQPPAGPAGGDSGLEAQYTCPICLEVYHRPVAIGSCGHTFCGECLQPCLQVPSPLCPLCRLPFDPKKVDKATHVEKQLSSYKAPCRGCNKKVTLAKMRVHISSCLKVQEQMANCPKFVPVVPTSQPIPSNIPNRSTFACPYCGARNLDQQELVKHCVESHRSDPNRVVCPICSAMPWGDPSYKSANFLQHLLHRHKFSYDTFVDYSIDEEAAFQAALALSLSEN
In words: Mass spectrometry proteomics, relative protein abundance in MOLT4 cells (RNF166). Type of data set: cell-based. To be noted: 1 μM compound, 5 hours.

For data set [9], the target named is T1, hsCRBN-DDB1 complex. In words: Peptide mapping CE-MS/MS, site of covalent modification. The class given is binding. To be noted: trypsin digest. The text has this: Peptides were resolved at 500 V/cm using an HR chip with a background electrolyte consisting of 50% acetonitrile with 1% formic acid. The mass spectrometer was operated in data dependent mode and the five most abundant ions in each MS scan (m/z 300-2000, 60K resolution, 3E6 target, 100 ms max fill time) were subjected to MS/MS (15K resolution, 1E5 target, 100 ms max fill time). […] Search parameters specified fixed vinylpyridine modification of cysteine, variable methionine oxidation, and variable modification of cysteine. Modified spectra were examined and figures prepared using mzStudio software.

For data set [10], the target named is T4, GSPT1 (Homo sapiens, UniProt P15170).
T4 construct: endogenous in cells; host or cells: MOLT4
Put plainly: Mass spectrometry proteomics, relative protein abundance in MOLT4 cells (GSPT1). Type of data set: cell-based. To be noted: 1 μM compound, 5 hours.

The target in data set [11] is T5, NanoLuc-CRBN (Homo sapiens, UniProt Q96SW2).
T5 construct: expressed in transfected cells; host or cells: HEK293T, lentiviral transduction, puromycin selection
Put plainly: Cellular CRBN NanoBret Engagement Assay. The class given is cell-based. The method, then: HEK293T cells were transduced with lentivirus and put under puromycin selection (5 μg/mL) for two weeks to produce a cell line stably expressing CRBN with N-terminally fused NanoLuc® luciferase (NanoLuc-CRBN). After antibiotic selection, cells were cultured in DMEM (Gibco, Life Technologies) supplemented with 10% FBS and 1 μg/mL puromycin to maintain stable NanoLuc®-CRBN expression. […] After 3-4 min, the trypsin was quenched with 5× volume DMEM media (Gibco, Life Technologies) with 10% FBS and cells were collected by centrifugation (1000 rpm, 5 min). The supernatant was removed by vacuum aspiration and the pellet was then resuspended in Opti-MEM™ without phenol red. The density of this cell suspension was determined by diluting the cells 1:1 with trypan blue, then counting using a Countess II (Thermo Fischer Scientific) and then diluted to the required volume at 2×10^5 viable cells/mL in Opti-MEM™ I (Gibco, Life Technologies). […] After plating, the assay plate was centrifuged (500×g, 5 min) and covered in aluminum foil. Compounds for testing were added to the plate using a D300e Digital Dispenser (HP) in duplicate 12-pt titrations from a 10 mM stock in DMSO, with DMSO normalized to 1% total volume. The plate was then placed in an incubator at 37° C., 5% CO2 for two hours. […] This was then added to each well (25 μL/well). The plate was read on a Pherastar FSX microplate reader with simultaneous dual emission capabilities to read 384-well plates at 450 and 520 nm. The NanoBRET™ ratio was calculated by dividing the signal at 520 nm by the signal at 450 nm for each sample. […] The NanoLuc® substrate and extracellular inhibitor were purchased as a kit from Promega Corporation and used as is from the box—Promega NanoBRET™ Nano-Glo® Substrate/Inhibitor; Promega Catalog number N2161 for 10,000 assay kit.

A short description of data set [12]: in vitro. To be noted: human, plasma.
[13] abbreviates: HEK293T cells stably expressing NanoLuc-CRBN, 250 nM BODIPY-lenalidomide tracer, 2 h incubation, read-out: CRBN NanoBRET IC50.

pIC50: −log10 of the molar value. Converted amounts (≈) assume the structure as drawn. Like-named read-outs stand apart in the source and are kept apart here.

In the case of `O=C1CCC(N2Cc3ccc(OS(=O)(=O)F)cc3C2=O)C(=O)N1` (stereo not drawn) [Compound 1, 2-(2,6-dioxopiperidin-3-yl)-3-oxoisoindolin-5-yl sulfurofluoridate], the solubility (kinetic) (commonly the concentration staying in solution when a stock, usually in DMSO, is diluted into the medium) in data set [1] came to 119 µM (≈ 40.7 µg/mL). In data set [2], the Papp (in general, a coefficient for how fast a substance crosses the barrier) worked out at 29.5 ×10⁻⁶ cm/s. The “HLM stability T1/2” value in data set [3] is over 2.42 h. Besides, the “Hhep stability Tin” value in [4] is listed as over 217 min.
Regarding `O=C1CCC(N2Cc3cc(OS(=O)(=O)F)ccc3C2=O)C(=O)N1` (stereo not drawn) [Compound 2, 2-(2,6-dioxopiperidin-3-yl)-1-oxoisoindolin-5-yl sulfurofluoridate], the “adduct formation with CRBN (intact MS)” value in [5] is recorded as “form an adduct with CRBN”.
As for `O=C1CCC(N2Cc3ccc(S(=O)(=O)F)cc3C2=O)C(=O)N1` (stereo not drawn) [Compound 3, 2-(2,6-dioxopiperidin-3-yl)-3-oxoisoindoline-5-sulfonyl fluoride], in [5] (1 eq. compound, 4 hr), the “mass shift of CRBN (Δmass)” value was determined as 307. Moreover, the “adduct formation with CRBN (intact MS)” value in data set [5] is listed as “form an adduct with CRBN”. Moreover, in [6], the “inhibition of IKZF1 degradation by lenalidomide” value is recorded as “clearly inhibits the degradation of IKZF1 by lenalidomide”.
As for `O=C1CCC(N2Cc3cc(S(=O)(=O)F)ccc3C2=O)C(=O)N1` (stereo not drawn) [Compound 4, 2-(2,6-dioxopiperidin-3-yl)-1-oxoisoindoline-5-sulfonyl fluoride], in [7], the “relative fold-change abundance of PFKFB4” value was “clearly downregulated”. Also, the “adduct formation with CRBN (intact MS)” value in data set [5] is “form an adduct with CRBN”. For the same compound, the “relative fold-change abundance of RNF166” value in data set [8] was “clearly downregulated”. In [9], the “site of covalent labeling of CRBN” value is recorded as “label His353”. Besides, the “relative fold-change abundance of GSPT1” value in data set [10] is listed as “clearly downregulated”.
`C=CS(=O)(=O)c1ccc2c(c1)C(=O)N(C1CCC(=O)NC1=O)C2` (stereo not drawn) [Compound 5, 3-(1-oxo-6-(vinylsulfonyl)isoindolin-2-yl)piperidine-2,6-dione]: in [11] (setting [13]), the pIC50 (in general, the IC50 on a negative log10 scale, so that one unit is a factor of ten) is 4.90.
The same measure, in the same setting: then `C=CS(=O)(=O)Nc1ccc2c(c1)C(=O)N(C1CCC(=O)NC1=O)C2` (stereo not drawn) [Compound 6, N-(2-(2,6-dioxopiperidin-3-yl)-3-oxoisoindolin-5-yl)ethenesulfonamide], with 6.27.
In data set [11], `Nc1cc(OS(=O)(=O)F)cc2c1CN(C1CCC(=O)NC1=O)C2=O` (stereo not drawn) [Compound 10, 4-amino-2-(2,6-dioxo-3-piperidyl)-6-fluorosulfonyloxy-1-oxo-isoindoline] gave a pIC50 of 6.05.
Take `Cc1cnn(S(=O)(=O)c2ccc3c(c2)C(=O)N(C2CCC(=O)NC2=O)C3)c1` (stereo not drawn) [Compound 11, 3-(6-((4-methyl-1H-pyrazol-1-yl)sulfonyl)-1-oxoisoindolin-2-yl)piperidine-2,6-dione]: the “Human plasma stability T1/2” value was over 4.82 h.
Same read-out and setting: the same measure for `O=C1CCC(N2Cc3ccc(S(=O)(=O)n4cc(F)cn4)cc3C2=O)C(=O)N1` (stereo not drawn) [Compound 12, 3-(6-((4-fluoro-1H-pyrazol-1-yl)sulfonyl)-1-oxoisoindolin-2-yl)piperidine-2,6-dione]: 1.53 h; for `O=C1CCC(N2Cc3ccc(S(=O)(=O)n4cc(C(F)(F)F)cn4)cc3C2=O)C(=O)N1` (stereo not drawn) [Compound 13, 3-(1-oxo-6-((4-(trifluoromethyl)-1H-pyrazol-1-yl)sulfonyl)isoindolin-2-yl)piperidine-2,6-dione]: 0.167 h; for `O=C1CCC(N2Cc3ccc(S(=O)(=O)n4cnc(C(F)(F)F)c4)cc3C2=O)C(=O)N1` (stereo not drawn) [Compound 14, 3-(1-oxo-6-((4-(trifluoromethyl)-1H-imidazol-1-yl)sulfonyl)isoindolin-2-yl)piperidine-2,6-dione]: 0.108 h.
On the same count and under the same terms, then `O=C1CCC(N2Cc3ccc(S(=O)(=O)n4ccc(F)n4)cc3C2=O)C(=O)N1` (stereo not drawn) [Compound 15, 3-(6-((3-fluoro-1H-pyrazol-1-yl)sulfonyl)-1-oxoisoindolin-2-yl)piperidine-2,6-dione], with 1.92 h.
Same read-out and setting: the same measure for `O=C1CCC(N2Cc3ccc(S(=O)(=O)n4cnc(F)c4)cc3C2=O)C(=O)N1` (stereo not drawn) [Compound 17, 3-(6-((4-fluoro-1H-imidazol-1-yl)sulfonyl)-1-oxoisoindolin-2-yl)piperidine-2,6-dione]: 0.317 h; for `O=C1CCC(N2Cc3ccc(S(=O)(=O)n4ccc(C(F)(F)F)n4)cc3C2=O)C(=O)N1` (stereo not drawn) [Compound 18, 3-(1-oxo-6-((3-(trifluoromethyl)-1H-pyrazol-1-yl)sulfonyl)isoindolin-2-yl)piperidine-2,6-dione]: 0.233 h; for `Cc1cn(S(=O)(=O)c2ccc3c(c2)C(=O)N(C2CCC(=O)NC2=O)C3)c(=O)[nH]c1=O` (stereo not drawn) [Compound 19, 1-((2-(2,6-dioxopiperidin-3-yl)-3-oxoisoindolin-5-yl)sulfonyl)-5-methylpyrimidine-2,4(1H,3H)-dione]: 3.98 h.
`Nc1cn(S(=O)(=O)c2ccc3c(c2)C(=O)N(C2CCC(=O)NC2=O)C3)c(=O)[nH]c1=O` (stereo not drawn) [Compound 20, 5-amino-1-((2-(2,6-dioxopiperidin-3-yl)-3-oxoisoindolin-5-yl)sulfonyl)pyrimidine-2,4(1H,3H)-dione]: in data set [11] (setting [13]), the pIC50 was 5.06. In data set [12], the half-life (commonly the time in which the quantity being followed falls by half) was over 4.82 h.
Consider `O=C1CCC(N2Cc3ccc(S(=O)(=O)n4ccc(=O)[nH]c4=O)cc3C2=O)C(=O)N1` (stereo not drawn) [Compound 21, 1-((2-(2,6-dioxopiperidin-3-yl)-3-oxoisoindolin-5-yl)sulfonyl)pyrimidine-2,4(1H,3H)-dione], for which the “Human plasma stability T1/2” value turned out to be 2.72 h.
